Among the data in patent US20250304576A1 (Cancer Research Technology Limited, priority 2022, published 2025) are Ki values, retold here.

pKi: −log10 of the molar value. Bounds are passed on as bounds.

Assay [1] addresses T1, Recombinant IKKα (Homo sapiens, UniProt O15111).
T1 construct: purchased Millipore, Dundee, UK
T1 sequence (O15111 1-745): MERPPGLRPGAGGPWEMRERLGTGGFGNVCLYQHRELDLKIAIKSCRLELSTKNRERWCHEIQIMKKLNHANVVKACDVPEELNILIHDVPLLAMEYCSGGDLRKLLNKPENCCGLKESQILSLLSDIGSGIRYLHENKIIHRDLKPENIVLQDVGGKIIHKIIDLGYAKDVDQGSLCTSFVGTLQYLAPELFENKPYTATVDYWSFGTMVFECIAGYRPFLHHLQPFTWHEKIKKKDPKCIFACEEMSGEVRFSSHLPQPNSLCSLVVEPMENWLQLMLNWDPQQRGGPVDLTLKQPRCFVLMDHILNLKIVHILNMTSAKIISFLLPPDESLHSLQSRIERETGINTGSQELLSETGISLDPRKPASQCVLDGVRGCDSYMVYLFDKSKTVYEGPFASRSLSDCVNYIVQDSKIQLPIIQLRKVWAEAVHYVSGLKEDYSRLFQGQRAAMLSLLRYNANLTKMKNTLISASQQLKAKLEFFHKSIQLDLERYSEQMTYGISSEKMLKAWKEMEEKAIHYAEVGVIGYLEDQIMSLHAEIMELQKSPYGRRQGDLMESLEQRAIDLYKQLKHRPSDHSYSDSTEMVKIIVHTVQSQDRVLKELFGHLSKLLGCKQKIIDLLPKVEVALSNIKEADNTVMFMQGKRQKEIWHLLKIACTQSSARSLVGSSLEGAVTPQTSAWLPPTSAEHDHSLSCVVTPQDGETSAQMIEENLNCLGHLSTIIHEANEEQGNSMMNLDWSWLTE
Kind of assay: DELFIA IKKα kinase assay (apparent Ki, Cheng-Prusoff). Format: biochemical. To be noted: non-italicised figure: DELFIA assay. As for the experimental part:
(§1) IKKα and IKKβ inhibitory activity was determined using three different assays: a dissociation enhanced ligand fluorescent immunoassay (DELFIA) based on the protocol of HTScan™ IKKβ Kinase Assay (Cell Signaling Technology, USA); an Adapta IKKα assay (performed by Life Technologies); a Z′-LYTE™ IKKβ assay (performed by Life Technologies).
(§2) Recombinant IKKα or IKKβ, 37 nM, (Millipore, Dundee, UK) was incubated with IηB-α (Ser32) (New England Biolabs, Hitchin, UK) biotinylated peptide substrate (0.375 μM) and 40 μM ATP in assay buffer (40 mM Tris-HCl (pH 7.5), 20 mM MgCl2, EDTA 1 mM, DTT 2 mM and BSA 0.01 mg/ml) in a V-well 96-well plate in the presence and absence of test compound. The assay plate was incubated for 60 minutes at 30° C. after which the kinase reaction was quenched by the addition of 50 mM EDTA, pH8. The resulting mixture was transferred to a streptavidin coated 96-well plate (Perkin Elmer, Beaconsfield, UK) and incubated for 1 hour at 30° C. to immobilise the substrate peptide. After three washes with wash buffer (0.01 M phosphate buffered saline (PBS), 0.05% Tween −20, pH 7.4) a primary antibody against the phosphorylated substrate (phospho-IηB-a) (Ser32/36) (5A5) Mouse mAb (New England Biolabs, Hitchin, UK) (1:1000 dilution with 1% bovine serum albumin (BSA) in wash buffer) was added and incubated at 37° C. for 2 h.
(§3) After a further three washes, a secondary europiated antibody (Eu-N1 labelled anti-mouse IgG, (Perkin Elmer, Beaconsfield, UK) diluted 1:500 in 1% BSA/wash buffer) was added and incubated at 30° C. for 30 minutes. After a further five washes, DELFIA enhancement solution—(Perkin Elmer, Beaconsfield UK) was added and allowed to incubate for 10 min at room temperature, protected from light, to facilitate the chemifluorescent detection. The relative fluorescence units (RFU) signal were measured on a Wallac Victor 1420 multilabel counter (Perkin Elmer, Beaconsfield, UK), in time-resolved fluorescence mode. The counter was set at an excitation wavelength of 340 nm with a 400 μs delay before detecting emitted light at 615 nm. The apparent Ki of the […] was calculated for each compound using the Cheng-Prusoff Equation.
(§4) The IKKα and IKKβ figures quoted in non-italicised form are from the DELFIA assay described above.

Assay [2] addresses T2, Recombinant IKKβ (Homo sapiens, UniProt O14920).
T2 construct: purchased Millipore, Dundee, UK
T2 sequence (O14920 1-756): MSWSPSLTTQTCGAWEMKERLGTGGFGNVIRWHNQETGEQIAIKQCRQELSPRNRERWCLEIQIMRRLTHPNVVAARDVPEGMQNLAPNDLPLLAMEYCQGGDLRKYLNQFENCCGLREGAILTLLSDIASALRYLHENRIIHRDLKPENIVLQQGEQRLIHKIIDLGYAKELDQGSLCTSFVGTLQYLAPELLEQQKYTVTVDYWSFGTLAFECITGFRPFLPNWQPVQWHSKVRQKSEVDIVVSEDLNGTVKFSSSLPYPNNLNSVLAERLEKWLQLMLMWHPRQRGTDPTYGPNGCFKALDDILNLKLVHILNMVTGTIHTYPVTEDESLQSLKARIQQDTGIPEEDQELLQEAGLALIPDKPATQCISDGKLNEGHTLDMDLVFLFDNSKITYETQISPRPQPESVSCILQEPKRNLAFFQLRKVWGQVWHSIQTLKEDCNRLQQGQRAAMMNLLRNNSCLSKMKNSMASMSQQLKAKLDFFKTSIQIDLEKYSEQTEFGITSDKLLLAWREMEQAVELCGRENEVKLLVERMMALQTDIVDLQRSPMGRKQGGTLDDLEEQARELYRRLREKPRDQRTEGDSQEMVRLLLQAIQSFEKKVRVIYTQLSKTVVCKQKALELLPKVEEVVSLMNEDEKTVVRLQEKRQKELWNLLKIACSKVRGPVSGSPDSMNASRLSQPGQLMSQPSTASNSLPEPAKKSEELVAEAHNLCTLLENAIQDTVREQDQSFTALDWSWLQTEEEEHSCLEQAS
The assay can be described thus: DELFIA IKKβ kinase assay (apparent Ki, Cheng-Prusoff). Format: biochemical. To be noted: non-italicised figure: DELFIA assay. As for the experimental part: as §1, §2, §3, §4

In general, pKi refers to the Ki on a negative log10 scale, so that one unit is a factor of ten. As to `Nc1n[nH]c2ccc(-c3ccnc(NCC4CC4)c3)cc12` [Example 15, 5-(2-((Cycipropylmethyl)amino)pyridine-4-yl)-1H-indazol-3-amine], the pKi is 6.77 in assay [1] and 6.10 in assay [2].
With `CC(C)CCNc1cc(-c2ccc3[nH]nc(N)c3c2)ccn1` [Example 16, 5-(2-(Isopentylamino)pyridin-4-yl)-1H-indazol-3-amine], the pKi in assay [1] is 7.19; in assay [2], 6.08.
In the same order, the values of `CCCCCCNc1cc(-c2ccc3[nH]nc(N)c3c2)ccn1` [Example 17, 5-(2-(Hexylamino)pyridine-4-yl)-1H-indazol-3-amine] are 6.94 and 5.87.
`Nc1n[nH]c2ccc(-c3ccnc(NC4CCCCC4)c3)cc12` [Example 18, 5-(2-(Cyclohexylamino)pyridine-4-yl)-1H-indazol-3-amine]: the pKi is 6.24 in assay [1] and below 5.00 in assay [2].
For `C[C@H]1CC[C@H](Nc2cc(-c3ccc4[nH]nc(N)c4c3)ccn2)CC1` [Example 19, 5-{2-[(Trans-4-methylcyclohexyl)amino]pyridin-4-yl}-1H-indazol-3-amine], the results for the pKi in assay [1] and in assay [2] were 6.77 and below 5.00, respectively.
In the same order, the values of `Nc1n[nH]c2ccc(-c3ccnc(NCCO)c3)cc12` [Example 20, 2-((4-(3-Amino-1H-indazol-5-yl)pyridine-2-yl)amino)ethan-1-ol] are 7.34 and 6.20.
In the same order, the values of `Nc1n[nH]c2ccc(-c3ccnc(NCCCO)c3)cc12` [Example 21, 3-((4-(3-Amino-1H-indazol-5-yl)pyridine-2-yl)amino)propan-1-ol] are 7.82 and 6.10.
In the case of `Nc1n[nH]c2ccc(-c3ccnc(NCCCCO)c3)cc12` [Example 22, 4-(4-(3-Amino-1H-indazol-5-yl)pyridin-2-ylamino)butan-1-ol], the pKi in assay [1] was 7.66; in assay [2] it was 5.83.
In the same order, the values of `Nc1n[nH]c2ccc(-c3ccnc(NCCCCCO)c3)cc12` [Example 23] are 7.48 and 6.47.
In the same order, the values of `Nc1n[nH]c2ccc(-c3ccnc(N[C@H]4CC[C@H](O)CC4)c3)cc12` [Example 24, 5-{2-[(Trans-4-hydroxycyclohexyl)amino]pyridin-4-yl}-1H-indazol-3-amine] are 7.00 and below 5.00.
In the same order, the values of `COCCNc1cc(-c2ccc3[nH]nc(N)c3c2)ccn1` [Example 25, 5-(2-((2-Methoxyethyl)amino)pyridine-4-yl)-1H-indazol-3-amine] are 6.66 and below 5.00.
As for `COCCCNc1cc(-c2ccc3[nH]nc(N)c3c2)ccn1` [Example 26, 5-(2-((3-Methoxypropyl)amino)pyridine-4-yl)-1H-indazol-3-amine], the pKi was 7.47 in assay [1] and 6.12 in assay [2].
In the same order, the values of `CC(C)OCCCNc1cc(-c2ccc3[nH]nc(N)c3c2)ccn1` [Example 27, 5-(2-((3-Isopropoxypropyl)amino)pyridin-4-yl)-1H-indazol-3-amine] are 7.12 and 5.60.
In the same order, the values of `Nc1n[nH]c2ccc(-c3ccnc(NCCCO)n3)cc12` [Example 28, 3-((4-(3-Amino-1H-indazol-5-yl)pyrimidin-2-yl)amino)propan-1-ol] are 7.19 and 6.34.
In the same order, the values of `CN(CCCO)c1cc(-c2ccc3[nH]nc(N)c3c2)ccn1` [Example 29, 3-((4-(3-Amino-1H-indazol-5-yl)pyridin-2-yl)(methyl)amino)propan-1-ol] are 5.72 and below 5.00.
For the molecule `Nc1n[nH]c2ccc(-c3ccnc(NCCN4CCOCC4)c3)cc12` [Example 30, 5-(2-((2-Morpholinoethyl)amino)pyridine-4-yl)-1H-indazol-3-amine], the pKi in assay [1] was 6.47; in assay [2], 6.42.
In the same order, the values of `Nc1n[nH]c2ccc(-c3ccnc(NCCN4CCCCC4)c3)cc12` [Example 31, 5-(2-((2-(Piperidin-1-yl)ethyl)amino)pyridine-4-yl)-1H-indazol-3-amine] are 6.31 and below 5.00.
In the same order, the values of `CNCCCNc1cc(-c2ccc3[nH]nc(N)c3c2)ccn1` [Example 32, N^1-(4-(3-Amino-1H-indazol-5-yl)pyridin-2-yl)-N^3-methylpropane-1,3-diamine] are 6.47 and below 5.00.
In the same order, the values of `Nc1n[nH]c2ccc(-c3ccnc(NC(=O)C4CC4)c3)cc12` [Example 33, N-[4-(3-Amino-1H-indazol-5-yl)pyridin-2-yl]cyclopropanecarboxamide] are 7.12 and 6.80.
Regarding `Nc1n[nH]c2ccc(-c3ccnc(NC(=O)c4ccccc4)c3)cc12` [Example 34, N-(4-(3-Amino-1H-indazol-5-yl)pyridin-2-yl)benzamide], the negative logarithm of the Ki (pKi) in assay [1] was 7.59; in assay [2], 6.46.
In the same order, the values of `CCOC(=O)Nc1cc(-c2ccc3[nH]nc(N)c3c2)ccn1` [Example 35, Ethyl (4-(3-amino-1H-indazol-5-yl)pyridin-2-yl)carbamate] are 7.82 and 6.33.
In the same order, the values of `CCNC(=O)Nc1cc(-c2ccc3[nH]nc(N)c3c2)ccn1` [Example 36, 1-(4-(3-Amino-1H-indazol-5-yl)pyridine-2-yl)-3-ethylurea] are 7.70 and 6.08.
With `CCCNC(=O)Nc1cc(-c2ccc3[nH]nc(N)c3c2)ccn1` [Example 37, 1-(4-(3-Amino-1H-indazol-5-yl)pyridin-2-yl)-3-propylurea], the results for the pKi in assay [1] and in assay [2] were 7.15 and 5.39, respectively.
In the same order, the values of `CC(C)CCNC(=O)Nc1cc(-c2ccc3[nH]nc(N)c3c2)ccn1` [Example 38, 1-(4-(3-Amino-1H-indazol-5-yl)pyridin-2-yl)-3-isopentylurea] are 7.00 and 5.38.
In the same order, the values of `Nc1n[nH]c2ccc(-c3ccnc(NC(=O)NC4CCCC4)c3)cc12` [Example 39, 1-(4-(3-Amino-1H-indazol-5-yl)pyridin-2-yl)-3-cyclopentylurea] are 6.94 and 6.01.
